Where a SMILES comes first, the peptide text is derived from it. Bridges are numbered along the chain shown (N, C = ends). [ ]: non-standard residue; d: D form. The star is where a group is joined. X1 = NC[C@@H](CC(=O)*)c1cccc(Cl)c1; Dab = NCC[C@H](N)C(=O)O; Dap = NC[C@H](N)C(=O)O
Test system: P. aeruginosa ATCC BAA-3107 (SEN) and P. aeruginosa LESB58 (MDR)
Experiment: Adaptive laboratory evolution (ALE), relative MIC of evolved lines
Format: cell-based, Pseudomonas aeruginosa
In short: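 Ten parallel populations per antibiotic–ancestor pair were evolved in MHB at 37 °C, starting near 50% growth-inhibiting drug. Every 72 h they were passaged into 0.5–2.5× increasing concentrations, keeping the highest-drug well with OD600 > 0.2.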

## CC(C)C[C@@H]1NC(=O)[C@@H](Cc2ccccc2)NC(=O)[C@H](CCN)NC(=O)[C@@H](NC(=O)[C@H](CN)NC(=O)[C@@H](NC(=O)C[C@H](CN)c2cccc(Cl)c2)[C@@H](C)O)CCNC(=O)[C@H]([C@@H](C)O)NC(=O)[C@H](CCN)NC(=O)[C@H](CCN)NC1=O [SPR206] (X1-T[Dap][Dab][Dab][dF]L[Dab][Dab]T; lactam 3-C (inferred); N-terminus assumed)
ALE, P. aeruginosa ATCC BAA 3107 (PA-SEN), evolved line 1
  Relative MIC: 16
ALE, P. aeruginosa ATCC BAA 3107 (PA-SEN), evolved line 2
  Relative MIC: 32
ALE, P. aeruginosa ATCC BAA 3107 (PA-SEN), evolved line 4
  Relative MIC: 16
ALE, P. aeruginosa ATCC BAA 3107 (PA-SEN), evolved line 5
  Relative MIC: 16
ALE, P. aeruginosa ATCC BAA 3107 (PA-SEN), evolved line 8
  Relative MIC: 8
ALE, P. aeruginosa ATCC BAA 3107 (PA-SEN), evolved line 9
  Relative MIC: 32
ALE, P. aeruginosa ATCC BAA 3107 (PA-SEN), evolved line 10
  Relative MIC: 2
PA-MDR (LESB 58), evolved line 1, evolved vs ancestor
  Relative MIC: 16
PA-MDR (LESB 58), evolved line 2, evolved vs ancestor
  Relative MIC: 16
PA-MDR (LESB 58), evolved line 3, evolved vs ancestor
  Relative MIC: 16
PA-MDR (LESB 58), evolved line 4, evolved vs ancestor
  Relative MIC: 8
PA-MDR (LESB 58), evolved line 5, evolved vs ancestor
  Relative MIC: 16
PA-MDR (LESB 58), evolved line 6, evolved vs ancestor
  Relative MIC: 32
PA-MDR (LESB 58), evolved line 7, evolved vs ancestor
  Relative MIC: 16
PA-MDR (LESB 58), evolved line 8, evolved vs ancestor
  Relative MIC: 4
PA-MDR (LESB 58), evolved line 9, evolved vs ancestor
  Relative MIC: 16
PA-MDR (LESB 58), evolved line 10, evolved vs ancestor
  Relative MIC: 32
PA-MDR (LESB 58), evolved line 4
  MIC of evolved line: 32 µg/mL
PA-MDR (LESB 58), evolved line 5
  MIC of evolved line: 64 µg/mL
PA-MDR (LESB 58), evolved line 6
  MIC of evolved line: 128 µg/mL
PA-MDR (LESB 58), evolved line 7
  MIC of evolved line: 64 µg/mL
PA-MDR (LESB 58), evolved line 8
  MIC of evolved line: 16 µg/mL
PA-MDR (LESB 58), evolved line 9
  MIC of evolved line: 64 µg/mL
PA-MDR (LESB 58), evolved line 10
  MIC of evolved line: 128 µg/mL
PA-MDR (Pseudomonas aeruginosa LESB 58), evolved line 1
  Relative MIC (log10): 1.204 log10
PA-MDR (Pseudomonas aeruginosa LESB 58), evolved line 6
  Relative MIC (log10): 1.505 log10
PA-MDR LESB 58, evolved line 1
  MIC of evolved line: 64 µg/mL
PA-MDR LESB 58, evolved line 2
  MIC of evolved line: 64 µg/mL
PA-MDR LESB 58, evolved line 3
  MIC of evolved line: 64 µg/mL
PA-MDR, Pseudomonas aeruginosa LESB 58, evolved line 9
  Relative MIC (log10): 1.204 log10
PA-MDR, Pseudomonas aeruginosa LESB 58, evolved line 10
  Relative MIC (log10): 1.505 log10
PA-MDR, Pseudomonas aeruginosa LESB 58, evolved line 3
  Relative MIC (log10): 1.204 log10
PA-SEN (ATCC BAA 3107), evolved line 1, evolved vs ancestor
  Relative MIC: 16
PA-SEN (ATCC BAA 3107), evolved line 2, evolved vs ancestor
  Relative MIC: 32
PA-SEN (ATCC BAA 3107), evolved line 4, evolved vs ancestor
  Relative MIC: 16
PA-SEN (ATCC BAA 3107), evolved line 5, evolved vs ancestor
  Relative MIC: 16
PA-SEN (ATCC BAA 3107), evolved line 8, evolved vs ancestor
  Relative MIC: 8
PA-SEN (ATCC BAA 3107), evolved line 9, evolved vs ancestor
  Relative MIC: 32
PA-SEN (ATCC BAA 3107), evolved line 10, evolved vs ancestor
  Relative MIC: 2
PA-SEN (ATCC BAA 3107), evolved line 2
  MIC of evolved line: 32 µg/mL
PA-SEN (ATCC BAA 3107), evolved line 4
  MIC of evolved line: 16 µg/mL
PA-SEN (ATCC BAA 3107), evolved line 5
  MIC of evolved line: 16 µg/mL
PA-SEN (ATCC BAA 3107), evolved line 8
  MIC of evolved line: 8 µg/mL
PA-SEN (ATCC BAA 3107), evolved line 9
  MIC of evolved line: 32 µg/mL
PA-SEN (ATCC BAA 3107), evolved line 10
  MIC of evolved line: 2 µg/mL
PA-SEN ATCC BAA 3107, evolved line 1
  MIC of evolved line: 16 µg/mL
PA-SEN, Pseudomonas aeruginosa ATCC BAA 3107, evolved line 1
  Relative MIC (log10): 1.204 log10
PA-SEN, Pseudomonas aeruginosa ATCC BAA 3107, evolved line 2
  Relative MIC (log10): 1.505 log10
PA-SEN, Pseudomonas aeruginosa ATCC BAA 3107, evolved line 4
  Relative MIC (log10): 1.204 log10
PA-SEN, Pseudomonas aeruginosa ATCC BAA 3107, evolved line 5
  Relative MIC (log10): 1.204 log10
PA-SEN, Pseudomonas aeruginosa ATCC BAA 3107, evolved line 9
  Relative MIC (log10): 1.505 log10
Pseudomonas aeruginosa ATCC BAA 3107 (PA-SEN), evolved line 1
  Relative MIC: 16
Pseudomonas aeruginosa ATCC BAA 3107 (PA-SEN), evolved line 2
  Relative MIC: 32
Pseudomonas aeruginosa ATCC BAA 3107 (PA-SEN), evolved line 4
  Relative MIC: 16
Pseudomonas aeruginosa ATCC BAA 3107 (PA-SEN), evolved line 5
  Relative MIC: 16
Pseudomonas aeruginosa ATCC BAA 3107 (PA-SEN), evolved line 8
  Relative MIC: 8
Pseudomonas aeruginosa ATCC BAA 3107 (PA-SEN), evolved line 9
  Relative MIC: 32
Pseudomonas aeruginosa ATCC BAA 3107 (PA-SEN), evolved line 10
  Relative MIC: 2
Pseudomonas aeruginosa LESB 58 (PA-MDR), evolved line 1
  Relative MIC: 16
Pseudomonas aeruginosa LESB 58 (PA-MDR), evolved line 2
  Relative MIC: 16
Pseudomonas aeruginosa LESB 58 (PA-MDR), evolved line 3
  Relative MIC: 16
Pseudomonas aeruginosa LESB 58 (PA-MDR), evolved line 4
  Relative MIC: 8
Pseudomonas aeruginosa LESB 58 (PA-MDR), evolved line 5
  Relative MIC: 16
Pseudomonas aeruginosa LESB 58 (PA-MDR), evolved line 6
  Relative MIC: 32
Pseudomonas aeruginosa LESB 58 (PA-MDR), evolved line 7
  Relative MIC: 16
Pseudomonas aeruginosa LESB 58 (PA-MDR), evolved line 8
  Relative MIC: 4
Pseudomonas aeruginosa LESB 58 (PA-MDR), evolved line 9
  Relative MIC: 16
Pseudomonas aeruginosa LESB 58 (PA-MDR), evolved line 10
  Relative MIC: 32

## POL7306
ALE, Pseudomonas aeruginosa ATCC BAA 3107 (PA-SEN), evolved line 1
  Relative MIC: 2
ALE, Pseudomonas aeruginosa ATCC BAA 3107 (PA-SEN), evolved line 2
  Relative MIC: 2
ALE, Pseudomonas aeruginosa ATCC BAA 3107 (PA-SEN), evolved line 3
  Relative MIC: 2
ALE, Pseudomonas aeruginosa ATCC BAA 3107 (PA-SEN), evolved line 4
  Relative MIC: 2
ALE, Pseudomonas aeruginosa ATCC BAA 3107 (PA-SEN), evolved line 6
  Relative MIC: 2
ALE, Pseudomonas aeruginosa ATCC BAA 3107 (PA-SEN), evolved line 8
  Relative MIC: 2

## polymyxin-B
PA-MDR (P. aeruginosa LESB 58), evolved line 4 of the given antibiotic
  MIC of evolved line: 4 µg/mL
PA-MDR (P. aeruginosa LESB 58), evolved line 5 of the given antibiotic
  MIC of evolved line: 4 µg/mL
PA-MDR (P. aeruginosa LESB 58), evolved line 7 of the given antibiotic
  MIC of evolved line: 32 µg/mL
PA-MDR (P. aeruginosa LESB 58), evolved line 8 of the given antibiotic
  MIC of evolved line: 8 µg/mL
PA-MDR (P. aeruginosa LESB 58), evolved line 10 of the given antibiotic
  MIC of evolved line: 16 µg/mL
PA-MDR LESB 58, evolved line 1
  MIC of evolved line: 64 µg/mL
PA-MDR LESB 58, evolved line 2
  MIC of evolved line: 256 µg/mL
PA-MDR LESB 58, evolved line 3
  MIC of evolved line: 16 µg/mL
PA-SEN (P. aeruginosa ATCC BAA 3107), evolved line 1 of the given antibiotic
  MIC of evolved line: 32 µg/mL
PA-SEN (P. aeruginosa ATCC BAA 3107), evolved line 4 of the given antibiotic
  MIC of evolved line: 32 µg/mL
PA-SEN (P. aeruginosa ATCC BAA 3107), evolved line 5 of the given antibiotic
  MIC of evolved line: 32 µg/mL
PA-SEN (P. aeruginosa ATCC BAA 3107), evolved line 6 of the given antibiotic
  MIC of evolved line: 4 µg/mL
PA-SEN (P. aeruginosa ATCC BAA 3107), evolved line 7 of the given antibiotic
  MIC of evolved line: 16 µg/mL
PA-SEN (P. aeruginosa ATCC BAA 3107), evolved line 8 of the given antibiotic
  MIC of evolved line: 16 µg/mL
PA-SEN (P. aeruginosa ATCC BAA 3107), evolved line 9 of the given antibiotic
  MIC of evolved line: 4 µg/mL
PA-SEN (P. aeruginosa ATCC BAA 3107), evolved line 10 of the given antibiotic
  MIC of evolved line: 4 µg/mL

Source: paper PMC11845477, “Exploring the principles behind antibiotics with limited resistance” (Nature Communications, 2025)
